Data set [1] addresses T1, human CRF2a receptor (Homo sapiens, UniProt Q13324).
T1 construct: expressed in transfected cells; host or cells: TeloHEAC cells
T1 sequence (Q13324 1-411): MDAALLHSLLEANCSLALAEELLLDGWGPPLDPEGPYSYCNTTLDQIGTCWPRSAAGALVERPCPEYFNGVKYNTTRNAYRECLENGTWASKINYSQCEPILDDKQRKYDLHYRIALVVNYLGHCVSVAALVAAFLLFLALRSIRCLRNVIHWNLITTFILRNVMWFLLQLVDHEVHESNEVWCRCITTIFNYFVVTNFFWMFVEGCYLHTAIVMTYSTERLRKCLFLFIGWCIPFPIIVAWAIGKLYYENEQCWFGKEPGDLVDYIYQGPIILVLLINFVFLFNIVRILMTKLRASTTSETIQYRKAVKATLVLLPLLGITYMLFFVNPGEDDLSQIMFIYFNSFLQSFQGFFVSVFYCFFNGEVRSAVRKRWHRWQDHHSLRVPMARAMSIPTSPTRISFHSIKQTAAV
The data set is described as follows: Activity at human CRF2a receptor, cAMP functional assay in TeloHEAC cells. The note with it: TeloHEAC cells stably expressing human CRF2a receptor, relative to urocortin 2 (100 nM = 100%). Type of data set: cell-based. Put shortly: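 TeloHEAC cells stably expressing human CRF2a (10000 cells/well) were treated with 16-point 1:2 compound dilutions in HBSS/20 mM HEPES with IBMX for 30 min at 37° C. cAMP was read by HTRF (665/620 nm ratio). EC50 was the concentration giving 50% activation, with 100 nM urocortin 2 set as 100%.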

The target of data set [2] is T2, CFR1R receptor (Homo sapiens, UniProt P34998).
T2 construct: host or cells: CHO-K1 (clone 2)
T2 sequence (P34998 24-415): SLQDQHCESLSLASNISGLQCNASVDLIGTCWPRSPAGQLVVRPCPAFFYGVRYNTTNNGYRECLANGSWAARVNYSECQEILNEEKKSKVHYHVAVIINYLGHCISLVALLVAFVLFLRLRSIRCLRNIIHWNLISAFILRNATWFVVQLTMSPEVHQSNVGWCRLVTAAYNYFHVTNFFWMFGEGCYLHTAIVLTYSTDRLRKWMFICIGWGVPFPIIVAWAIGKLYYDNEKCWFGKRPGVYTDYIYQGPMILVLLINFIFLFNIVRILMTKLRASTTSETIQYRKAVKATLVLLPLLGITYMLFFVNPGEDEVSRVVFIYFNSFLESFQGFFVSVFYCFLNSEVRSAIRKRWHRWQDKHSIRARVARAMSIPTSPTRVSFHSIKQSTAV
The data set is described as follows: Activity at anti-target CFR1R receptor, cAMP assay in CRF1R-overexpression CHO-K1 cells. The note with it: 100% = Sauvagine at 100 nM; for pEC50: cAMP. Type of data set: cell-based. Put shortly:
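Signal is normalised to 100 nM Sauvagine, taken as 100% activation, in clone 2 cells plated at a final 4000 cells/well from frozen stocks.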
Background: Cyclic AMP is a second messenger, typically raised through Gs and lowered through Gi signalling.

A short description of data set [3]: Chemical stability in buffer (pH 7.4 / pH 4.5), % purity loss. Type of data set: physicochemical. The conditions noted are these: 40° C. vs 5° C., 14 or 28 days; for Buffer stability pH 4.5 % purity loss: 100 mM acetate buffer pH 4.5; for Buffer stability pH 7.4 % purity loss: 100 mM phosphate buffer pH 7.4. The procedure:
Solubility and chemical stability were studied in 100 mM phosphate buffer (pH 7.4) and 100 mM acetate buffer (pH 4.5). Test compound powders were dissolved in both buffers at a target concentration of 10 mg/mL and incubated for 1 hour at room temperature. After centrifugation at 2500 rcf for 15 minutes, 10 μL of supernatant was diluted with 190 μL of the incubation buffer and analyzed by LC-UV (Acquity UPLC-DAD, Waters). Solubility was calculated by comparing the peak area of the test compound in the buffer sample with the peak area of the same compound dissolved at 0.5 mg/mL in water:acetonitrile 1:1, 0.1% formic acid.
From the centrifuged supernatant, two additional 80 μL aliquots were collected and diluted with 160 μL of incubation buffer. One aliquot was stored at 5° C., while the other was stored at 40° C. After 14 or 28 days, the samples were analyzed by LC-UV. Chemical stability was calculated as % loss using the following equations: […]

Data on four compounds can be found in patent publication US20260001928A1 (CORTERIA PHARMACEUTICALS, priority 2022, published 2026).

pEC50: −log10 of the molar value. *1 amine or outer side, *2 acyl side, *3 side chain or, on linkers, in order; H or OH if unused. Where a SMILES comes first, the peptide text is derived from it. Side-chain parts run from the residue outwards. [ ]: non-standard residue; d: D form. The star is where a group is joined. C20 diacid = O=C(O)CCCCCCCCCCCCCCCCCCC(=O)*; C18 diacid = O=C(O)CCCCCCCCCCCCCCCCC(=O)*; γGlu = O=C(O)[C@H](CCC(=O)[*:2])N[*:1]; NMeI = CC[C@H](C)[C@H](NC)C(=O)O; Abu = CC[C@H](N)C(=O)O; Pentanoyl = CCCCC(=O)*; AEEA = NCCOCCOCC(=O)O; Aib = CC(C)(N)C(=O)O

The pEC50 is −log10 of the EC50, conventionally taken in molar units. A low value points to a large EC50. Take `CC[C@H](C)[C@H](NC(=O)[C@H](CCC(N)=O)NC(=O)[C@H](CCCCN)NC(=O)[C@H](CC(N)=O)NC(=O)[C@@H](NC(=O)[C@H](CCC(=O)O)NC(=O)[C@H](C)NC(=O)[C@H](CCC(N)=O)NC(=O)[C@H](CCC(=O)O)NC(=O)[C@H](CCCNC(=N)N)NC(=O)[C@H](CCC(N)=O)NC(=O)[C@H](CCCCN)NC(=O)[C@H](CCCCN)NC(=O)[C@H](CCC(N)=O)NC(=O)[C@H](CCCCN)NC(=O)[C@H](CCC(=O)O)NC(=O)[C@H](CCC(N)=O)NC(=O)[C@H](CCC(=O)O)NC(=O)[C@H](CC(C)C)NC(=O)[C@H](CC(C)C)NC(=O)[C@@H](NC(=O)[C@H](CCCCN)NC(=O)[C@H](CCCCNC(=O)COCCOCCNC(=O)COCCOCCNC(=O)CC[C@H](NC(=O)CCCCCCCCCCCCCCCCC(=O)O)C(=O)O)NC(=O)[C@H](CC(C)C)NC(=O)[C@H](CCCCN)NC(=O)[C@@H](NC(=O)[C@@H]1CCCN1C(=O)[C@H](NC(=O)[C@H](CC(=O)O)NC(=O)[C@H](CC(C)C)NC(=O)[C@H](CO)NC(=O)[C@H](CC(C)C)NC(=O)[C@@H](N)C(C)C)C(C)C)[C@@H](C)CC)[C@@H](C)CC)[C@@H](C)O)C(=O)N[C@@H](CC(C)C)C(=O)N[C@@H](C)C(=O)N[C@@H](CCC(N)=O)C(=O)N[C@H](C(N)=O)C(C)C` [compound 93] (H-VLSLD[dV]PIKLK([AEEA-AEEA-γGlu-C18 diacid])KILLEQEKQKKQREQAETNKQILAQV-NH2): the pEC50 in data set [1] is 8.29. In data set [2], the “Emax (% I)” value stood at 6 % I and the pEC50 is under 6.60. Besides, in data set [3], the “Buffer stability pH 4.5 % purity loss” value is given as 0% and the “Buffer stability pH 7.4 % purity loss” value was 19%.
Take `CCCCC(=O)N[C@H](C(=O)N[C@@H](CC(C)C)C(=O)N[C@@H](CO)C(=O)N[C@@H](CC(C)C)C(=O)N[C@@H](CC(=O)O)C(=O)N[C@H](C(=O)N1CCC[C@H]1C(=O)N[C@H](C(=O)N[C@@H](CCCCN)C(=O)N[C@@H](CC(C)C)C(=O)N[C@@H](CCCCNC(=O)COCCOCCNC(=O)COCCOCCNC(=O)CC[C@H](NC(=O)CCCCCCCCCCCCCCCCC(=O)O)C(=O)O)C(=O)N[C@@H](CCCCN)C(=O)N[C@H](C(=O)N[C@@H](CC(C)C)C(=O)N[C@@H](CC(C)C)C(=O)N[C@@H](CCC(=O)O)C(=O)N[C@@H](CCC(N)=O)C(=O)N[C@@H](CCC(=O)O)C(=O)N[C@@H](CCCCN)C(=O)N[C@@H](CCC(N)=O)C(=O)N[C@@H](CCCCN)C(=O)N[C@@H](CCCCN)C(=O)N[C@@H](CCC(N)=O)C(=O)N[C@@H](CCCNC(=N)N)C(=O)N[C@@H](CCC(=O)O)C(=O)N[C@@H](CCC(N)=O)C(=O)N[C@@H](C)C(=O)N[C@@H](CCC(=O)O)C(=O)N[C@H](C(=O)N[C@@H](CC(N)=O)C(=O)N[C@@H](CCCCN)C(=O)N[C@@H](CCC(N)=O)C(=O)N[C@H](C(=O)N[C@@H](CC(C)C)C(=O)N[C@@H](C)C(=O)N[C@@H](CCC(N)=O)C(=O)N[C@H](C(N)=O)C(C)C)[C@@H](C)CC)[C@@H](C)O)[C@@H](C)CC)[C@@H](C)CC)C(C)C)C(C)C` [compound 96] (Pentanoyl-VLSLDVPIKLK([AEEA-AEEA-γGlu-C18 diacid])KILLEQEKQKKQREQAETNKQILAQV-NH2): the pEC50 is 9.31 in data set [1] and under 6.60 in data set [2]. Moreover, the “Emax (% I)” value in data set [2] was 4 % I. Also, the “Buffer stability pH 4.5 % purity loss” value in data set [3] was “nd/0 ^ %”.
Consider `CC[C@H](NC(=O)[C@H](CC(N)=O)NC(=O)[C@@H](NC(=O)[C@H](CCC(=O)O)NC(=O)[C@H](C)NC(=O)[C@H](CCC(N)=O)NC(=O)[C@H](CCC(=O)O)NC(=O)[C@H](CCCNC(=N)N)NC(=O)[C@H](CCC(N)=O)NC(=O)[C@H](CCCCN)NC(=O)[C@H](CCCCN)NC(=O)[C@H](CCC(N)=O)NC(=O)[C@H](CCCCN)NC(=O)[C@H](CCC(=O)O)NC(=O)[C@H](CCC(N)=O)NC(=O)[C@H](CCC(=O)O)NC(=O)[C@H](CC(C)C)NC(=O)[C@H](CC(C)C)NC(=O)[C@@H](NC(=O)[C@H](CCCCN)NC(=O)[C@H](CCCCNC(=O)COCCOCCNC(=O)COCCOCCNC(=O)CC[C@H](NC(=O)CCCCCCCCCCCCCCCCC(=O)O)C(=O)O)NC(=O)[C@H](CC(C)C)NC(=O)[C@H](CCCCN)NC(=O)[C@@H](NC(=O)[C@@H]1CCCN1C(=O)[C@H](NC(=O)[C@H](CC(=O)O)NC(=O)[C@H](CC(C)C)NC(=O)[C@H](CO)NC(=O)[C@H](CC(C)C)NC(=O)[C@@H](NC(=O)[C@@H](NC(C)=O)[C@@H](C)CC)C(C)C)C(C)C)[C@@H](C)CC)[C@@H](C)CC)[C@@H](C)O)C(=O)N[C@@H](CCC(N)=O)C(=O)N[C@H](C(=O)N[C@@H](CC(C)C)C(=O)N[C@@H](C)C(=O)N[C@@H](CCC(N)=O)C(=O)N[C@H](C(N)=O)C(C)C)[C@@H](C)CC` [compound 104] (Ac-IVLSLD[dV]PIKLK([AEEA-AEEA-γGlu-C18 diacid])KILLEQEKQKKQREQAETN[Abu]QILAQV-NH2), for which the pEC50 in data set [1] is 9.33. For the same compound, in data set [2], the “Emax (% I)” value turned out to be 5 % I and the pEC50 is under 6.60. In data set [3], the “Buffer stability pH 4.5 % purity loss” value was 0/0 ^ % and the “Buffer stability pH 7.4 % purity loss” value is given as 0/0 ^ %.
Consider `CC[C@H](C)[C@H](NC)C(=O)N[C@H](C(=O)N[C@@H](CC(C)C)C(=O)N[C@@H](CO)C(=O)N[C@@H](CC(C)C)C(=O)N[C@@H](CC(=O)O)C(=O)N[C@@H](C(=O)N1CCC[C@H]1C(=O)N[C@H](C(=O)N[C@@H](CCCCN)C(=O)N[C@@H](CC(C)C)C(=O)N[C@@H](CCCCNC(=O)COCCOCCNC(=O)COCCOCCNC(=O)CC[C@H](NC(=O)CCCCCCCCCCCCCCCCCCC(=O)O)C(=O)O)C(=O)N[C@@H](CCCCN)C(=O)N[C@H](C(=O)N[C@@H](CC(C)C)C(=O)N[C@@H](CC(C)C)C(=O)N[C@@H](CCC(=O)O)C(=O)N[C@@H](CCC(N)=O)C(=O)N[C@@H](CCC(=O)O)C(=O)N[C@@H](CCCCN)C(=O)N[C@@H](CCC(N)=O)C(=O)N[C@@H](CCCCN)C(=O)NC(C)(C)C(=O)N[C@@H](CCC(N)=O)C(=O)N[C@@H](CCCNC(=N)N)C(=O)N[C@@H](CCC(=O)O)C(=O)N[C@@H](CCC(N)=O)C(=O)N[C@@H](C)C(=O)N[C@@H](CCC(=O)O)C(=O)N[C@H](C(=O)N[C@@H](CC(N)=O)C(=O)NC(C)(C)C(=O)N[C@@H](CCC(N)=O)C(=O)N[C@H](C(=O)N[C@@H](CC(C)C)C(=O)N[C@@H](C)C(=O)N[C@@H](CCC(N)=O)C(=O)N[C@H](C(N)=O)C(C)C)[C@@H](C)CC)[C@@H](C)O)[C@@H](C)CC)[C@@H](C)CC)C(C)C)C(C)C` [compound 239] (H-[NMeI]VLSLD[dV]PIKLK([AEEA-AEEA-γGlu-C20 diacid])KILLEQEKQK[Aib]QREQAETN[Aib]QILAQV-NH2), for which, in data set [1], the negative-log EC50 (pEC50) was 9.96. Further, in data set [2], the “Emax (% I)” value is given as 0 % I and the pEC50 was under 6.60. In addition, in data set [3], the “Buffer stability pH 4.5 % purity loss” value was 2.6% and the “Buffer stability pH 7.4 % purity loss” value was determined as 0.0%.
